Assay [1] has as its system C1300 mouse neuroblastoma cells, Neuro-2a clone. In words: Neuritogenic activity (cells with neurites, optical microscopy). Format: cell-based. The protocol: C1300 mouse neuroblastoma cells, Neuro-2a clone, (American Cell Type Culture Collection, Bethesda, Md.) were grown at a density of 10,000 cells/well in a culture medium containing Dulbecco's modified Eagle medium (DMEM, Flow), 10% fetal calf serum (FCS, batch IP 02, Seromed), penicillin (100 units per ml, Irvine), and L-glutamine (2 mM, Sigma). Cells were incubated at 37° C. for 24 hours, and medium was removed and substituted with 350 μl of fresh medium plus compounds to be tested.
Tested Compounds and Their Solubilization
Compounds ND35 and ND37 were solubilized at a concentration of 1×10^-2 M in dimethylsulfoxide (1% DMSO). For the different compounds, progressive dilutions in culture medium were performed (concentrations from 1×10^-5 to 1×10^-4 M).
Neuritogenic activity (cell number with neurites, optical microscopy)
Culture plates were incubated with compounds to be tested and analyzed using a phase contrast microscope (250×). Nine fields with prefixed coordinates were chosen and photographed. Then the total number of cells and those with neurites (length at least double the cell diameter) were counted in blind in each photograph. The percentage of cells with neurites was determined after counting of at least 100 cells (Facci L. et al.: Promotion of neuritogenesis in mouse neuroblastoma cells by exogenous ganglioside GM1. J. Neurochem. Raven Press, New York, 299-305,1984).

For assay [2], the system named is cerebellar granule cells and cortical neurons. Briefly: Whole cell registration of glutamate-activated inward currents. The note with it: glutamate 50 μM given contemporaneously with ND37 30 μM; absence of Mg++. The assay is classed as cell-based, rats. The procedure: (§1) Primary cell cultures of cerebellar granule cells were prepared from 8 day old rats (Zivic Miller, Pittsburgh, Pa, USA).
(§2) Neurons were grown on 35 mm plates for 7-8 days and maintained in a humid environment (95% air and 5% CO2). Cultures (2.5×10^6 cells/plate) were mainly formed by granule cells (95%), with a small amount (5%) of glial cells (Gallo V. et al.: Selective release of glutamate from cerebellar granule cells differentiating in culture. Proc. Natl. Acad. Sci. USA 79, 7919-23, 1982). Glial proliferation was prevented by arabinofuranoside cytosine.
Primary cell cultures of cortical neurons were prepared from one day old neonatal […] (Zivic Miller, Pittsburgh, Pa., USA) (Bertolino and Vicini: Mol. Pharmacol. 34, 98-103, 1988).
Cultures were grown on 35 mm plates, to which was added 10 μg/ml of poly-L-lysine, at a density of 5×10^5 cortical neurons/plate. Cultures were prepared on basal Eagle medium (Gibco) containing 10% fetal calf serum (Gibco), 25 mM KCl, 2 mM glutamine, and 100 μg/ml gentamycine. […]
Derivative ND37 was solubilized at a concentration of 1×10^-2 M in dimethylsulfoxide (1% DMSO), and then diluted at various concentrations in Locke's solution (-Mg^++) (154 mM NaCl/5.6 mM KCl/3.6 mM NaHCO3 /2.3 mM CaCl2 /5.6 mM glucose/5 mM HEPES, pH 7.4). ND37 was analyzed at concentrations of 20 and 30 μM. […]

The subject of assay [3] is glutamate-activated cationic channels (cerebellar granule neurons). In words: Single channel current registration of glutamate-activated cationic channels. Format: cell-based, rats. The protocol: as §1, §2
Derivative ND37 was solubilized at a concentration of 1×10^-2 M in dimethylsulfoxide (1% DMSO), and then diluted at various concentrations in Locke's solution (-Mg^++) (154 mM NaCl/5.6 mM KCl/3.6 mM NaHCO3 /2.3 mM CaCl2 /5.6 mM glucose/5 mM HEPES, pH 7.4). ND37 was analyzed at concentrations of 20 and 30 μM.
Experiments were performed at room temperature utilizing the following medium 145 mM NaCl, 1 mM CaCl2, 5 mM glucose, and 5 mM HEPES/NaOH at pH 7.4, and patch pipettes, close to the preparation, containing 145 mM CsCl2, 1 mM CaCl2, 11 mM ethyleneglycol (β-aminoethyl ether) bis N,N'-tetraacetic acid, 10 mM HEPES/Cs(OH)2 at pH 7.2. Plates were continually perfused at a flow rate of 1 ml/min.
b) The activation by glutamate of single channels was externally recorded on membrane portions prepared from cerebellar granule cells pretreated with ND37 for 30 minutes at 37° C. Micropipettes, filled (1 μM) with glutamate, were positioned close to the membrane portions and were also utilized in order to drip the neurotransmitter. Single channel currents were registered according to the method described by Bertolini and Vicini ("Voltage-dependent block by strychnine of N-methyl-D-aspartic acid-activated cationic channels in rat cortical neurons in culture", Mol. Pharmacol. 34, 98-103, 1988).

[4] abbreviates: Glutamate (1 mM) + ND37 (20 uM), 30 minutes pretreatment, n = 10.

Entries after “also recorded” stand apart in the source; their conditions may differ.

With `CCCCCCCCCCCCCCCC(=O)NC1C(O)CC(OCC)(C(=O)N(C)C)OC1C(O)C(O)CO` (stereo not drawn) [ND37, β-2-O-ethylglycoside of the dimethylamide of N-palmitoylneuraminic acid], the “Cells with neurities (%)” value is on record as 48 ± 9% in assay [1] (1 × 10^-4 M), 5 ± 3% in assay [1] (1 × 10^-5 M), 8 ± 4% in assay [1] (2.5 × 10^-5 M) and 27 ± 5% in assay [1] (5 × 10^-5 M). The neuritogenesis in vitro entry in assay [1] (1×10^-5 to 1×10^-4 M) is on record as “induce neuritogenesis”. For the same molecule, the “inside currents activated by glutamate (whole cell response)” value in assay [2] is “does not influence the control response; also recorded: not different”. Moreover, the Channel conductivity in assay [3] (setting [4]) stood at 50 ps. For the same molecule, in assay [3] (setting [4]), the Opening frequence is given as 4.1 ± 2.1 opening/sec. The “effect on channel conductivity and frequency of opening” value in assay [3] (pretreatment 30 minutes with 20 μM ND37) was “does not influence”.
